Measured values reported in patent US20250026769A1, “PAPD5 INHIBITORS AND METHODS OF USE THEREOF” (The Children's Medical Center Corporation, priority 2021, published 2025).

The compounds below were run against T1, rPAPD5 (Homo sapiens, UniProt Q8NDF8) (assay: differential scanning fluorimetry (DSF) binding and stabilization of rPAPD5). Details: 100 μM test compound; shift vs DMSO control; read-out: ΔTm at 100 μM.
T1 construct: made in house
Method: Binding and stabilization of rPAPD5 by test compounds was determined using differential scanning fluorimetry (DSF). DSF assays were performed to determine protein melting temperature using an indicator dye SYPRO orange (Thermo Fisher Scientific, S6651) diluted 1:5000 in […] of buffer containing […], […] (Jena Biosciences), 25 mM Tris-HCl, 5 mM MgCl2, 50 mM KCl. […] DMSO was used as a negative control. Each curve was an average of three measurements and Thermal Shift software (Thermo Fisher Scientific, 4466038) was used for analysis. […] The change in melting temperature (ΔTm) is in reference to the DMSO control. Referring to Table 2, “+” refers to ΔTm values below 1° C., “++” refers to ΔTm values from 1 to 5° C., and “+++” refers to ΔTm values above 5° C.

T1 sequence (Q8NDF8 68-698 isoform Q8NDF8-5 limits assumed): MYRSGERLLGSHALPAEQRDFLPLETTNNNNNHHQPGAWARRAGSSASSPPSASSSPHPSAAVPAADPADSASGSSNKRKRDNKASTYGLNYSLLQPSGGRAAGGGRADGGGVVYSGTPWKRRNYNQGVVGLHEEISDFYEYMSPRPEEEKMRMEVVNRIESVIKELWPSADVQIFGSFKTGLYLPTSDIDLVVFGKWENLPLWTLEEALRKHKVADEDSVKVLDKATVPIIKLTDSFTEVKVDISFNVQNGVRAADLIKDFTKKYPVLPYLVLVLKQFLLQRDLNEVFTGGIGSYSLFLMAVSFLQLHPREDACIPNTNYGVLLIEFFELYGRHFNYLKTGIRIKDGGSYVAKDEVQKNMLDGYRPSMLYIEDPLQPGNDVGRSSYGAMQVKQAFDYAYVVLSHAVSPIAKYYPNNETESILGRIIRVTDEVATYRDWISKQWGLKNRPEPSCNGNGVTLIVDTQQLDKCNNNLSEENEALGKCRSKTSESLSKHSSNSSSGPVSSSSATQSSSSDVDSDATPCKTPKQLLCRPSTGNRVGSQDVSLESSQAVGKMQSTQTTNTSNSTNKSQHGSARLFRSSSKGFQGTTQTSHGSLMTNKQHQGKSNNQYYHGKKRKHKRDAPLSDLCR

How did the ΔTm at 100 µM turn out when `O=C(O)c1cc(F)ccc1Nc1c(C2=CCOCC2)cnc2ccc(Cl)cc12` [Compound 304A, 2-[[6-chloro-3-(3,6-dihydro-2H-pyran-4-yl)-4-quinolyl]amino]-5-fluoro-benzoic acid] was run?
The ΔTm at 100 µM was greater than 5 °C.

For `O=C(O)c1cc(B(O)O)ccc1Nc1c(S(=O)(=O)N2CCOCC2)cnc2ccc(Cl)cc12` [Compound 263A, 5-borono-2-[(6-chloro-3-morpholinosulfonyl-4-quinolyl)amino]benzoic acid], which ΔTm at 100 µM is on record?
The ΔTm at 100 µM was greater than 5 °C.

With `Cn1ncc2ccc(-c3ccc4ncc(S(=O)(=O)N5CCOCC5)c(Nc5ccccc5C(=O)O)c4c3)cc21` [Compound 177A, 2-[[6-(1-methylindazol-6-yl)-3-morpholinosulfonyl-4-quinolyl]amino]benzoic acid] as the compound, how does the ΔTm at 100 µM read?
Its ΔTm at 100 µM is 1 to 5 °C.

With `O=C(O)c1cc(O)ccc1Nc1c(S(=O)(=O)N2CCOCC2)cnc2ccc(Cl)cc12` [Compound 265A, 2-[(6-chloro-3-morpholinosulfonyl-4-quinolyl)amino]-5-hydroxy-benzoic acid] as the compound, how does the ΔTm at 100 µM read?
The ΔTm at 100 µM was greater than 5 °C.

Which ΔTm at 100 µM does the source give for `O=C(O)c1ccccc1Nc1c(S(=O)(=O)N2CCOCC2)cnc2ccc(-c3ccc4[nH]cnc4c3)cc12` [Compound 182A, 2-[[6-(1H-benzimidazol-5-yl)-3-morpholinosulfonyl-4-quinolyl]amino]benzoic acid] here?
The ΔTm at 100 µM was 1 to 5 °C.

`O=C(O)c1ccccc1Nc1c(S(=O)(=O)N2CCOCC2)cnc2ccc(-c3ccc(S(=O)(=O)N4CCOCC4)cc3)cc12` [Compound 172A, 2-[[3-morpholinosulfonyl-6-(4-morpholinosulfonylphenyl)-4-quinolyl]amino]benzoic acid] was tested. Which ΔTm at 100 µM did it give?
The ΔTm at 100 µM was 1 to 5 °C.

How did the ΔTm at 100 µM turn out when `O=C(O)c1ccccc1Nc1c(S(=O)(=O)N2CCOCC2)cnc2ccc(C(F)(F)F)cc12` [Compound 234A, 2-[[3-morpholinosulfonyl-6-(trifluoromethyl)-4-quinolyl]amino]benzoic acid] was run?
The ΔTm at 100 µM was greater than 5 °C.

How did the ΔTm at 100 µM turn out when `CC(=O)c1ccc(-c2ccc3ncc(S(=O)(=O)N4CCOCC4)c(Nc4ccccc4C(=O)O)c3c2)s1` [Compound 138A] was run?
The ΔTm at 100 µM was greater than 5 °C.

How did the ΔTm at 100 µM turn out when `C/N=c1/ccc(-c2ccc3ncc(S(=O)(=O)N4CCOCC4)c(Nc4ccccc4C(=O)O)c3c2)c[nH]1` [Compound 151A] was run?
The ΔTm at 100 µM was 1 to 5 °C.

`O=C(O)c1ccccc1Nc1c(-c2nccs2)cnc2ccc(Cl)cc12` [Compound 211A, 2-[(6-chloro-3-thiazol-2-yl-4-quinolyl)amino]benzoic acid] was tested. Which ΔTm at 100 µM did it give?
The ΔTm at 100 µM was greater than 5 °C.

`CC(C)n1nc(C(F)(F)F)cc1-c1ccc2ncc(S(=O)(=O)N3CCOCC3)c(Nc3ccccc3C(=O)O)c2c1` [Compound 141A] was tested. Which ΔTm at 100 µM did it give?
The ΔTm at 100 µM was less than 1 °C.

`CNc1ncc2cc(-c3ccc4ncc(S(=O)(=O)N5CCOCC5)c(Nc5ccccc5C(=O)O)c4c3)ccc2n1` [Compound 171A, 2-[[6-[2-(methylamino)quinazolin-6-yl]-3-morpholinosulfonyl-4-quinolyl]amino]benzoic acid] was tested. Which ΔTm at 100 µM did it give?
The ΔTm at 100 µM was 1 to 5 °C.

`CCc1ccc(Nc2c(S(=O)(=O)N3CCOCC3)cnc3ccc(Cl)cc23)c(C(=O)O)c1` [Compound 318A, 2-[(6-chloro-3-morpholinosulfony 1-4-quinolyl)amino]-5-ethyl-benzoic acid] was tested. Which ΔTm at 100 µM did it give?
The ΔTm at 100 µM was greater than 5 °C.

How did the ΔTm at 100 µM turn out when `O=C(O)c1c(Nc2c(S(=O)(=O)N3CCOCC3)cnc3ccc(Cl)cc23)cccc1-c1ccn[nH]1` [Compound 91A-Cl] was run?
Its ΔTm at 100 µM is 1 to 5 °C.

`O=C(O)c1ccc(B(O)O)cc1Nc1c(S(=O)(=O)N2CCOCC2)cnc2ccc(Cl)cc12` [Compound 289A, 4-borono-2-[(6-chloro-3-morpholinosulfonyl-4-quinolyl)amino]benzoic acid] was tested. Which ΔTm at 100 µM did it give?
Its ΔTm at 100 µM is greater than 5 °C.

For `O=C(O)c1ccc(C(F)(F)F)cc1Nc1c(S(=O)(=O)N2CCOCC2)cnc2ccc(Cl)cc12` [Compound 278A, 2-[(6-chloro-3-morpholinosulfonyl-4-quinolyl)amino]-4-(trifluoromethyl)benzoic acid], which ΔTm at 100 µM is on record?
The ΔTm at 100 µM was 1 to 5 °C.

With `COc1ncc(-c2ccc3ncc(S(=O)(=O)N4CCOCC4)c(Nc4ccccc4C(=O)O)c3c2)cc1N` [Compound 166A, 2-[[6-(5-amino-6-methoxy-3-pyridyl)-3-morpholinosulfonyl-4-quinolyl]amino]benzoic acid] as the compound, how does the ΔTm at 100 µM read?
Its ΔTm at 100 µM is 1 to 5 °C.

With `O=C(O)c1ccccc1Nc1c(S(=O)(=O)N2CCOCC2)cnc2ccc(-c3ccc(N4CCOCC4)nc3)cc12` [Compound 163A, 2-[[6-(6-morpholino-3-pyridyl)-3-morpholinosulfonyl-4-quinolyl]amino]benzoic acid] as the compound, how does the ΔTm at 100 µM read?
Its ΔTm at 100 µM is 1 to 5 °C.

For `O=C(O)c1ccccc1Nc1c(S(=O)(=O)N2CCOCC2)cnc2ccc(-c3cnn(C4CCOC4)c3)cc12` (stereo not drawn) [Compound 148A-R], which ΔTm at 100 µM is on record?
The ΔTm at 100 µM was 1 to 5 °C.

With `N#Cc1ccc(-c2ccc3ncc(S(=O)(=O)N4CCOCC4)c(Nc4ccccc4C(=O)O)c3c2)cn1` [Compound 164A, 2-[[6-(6-cyano-3-pyridyl)-3-morpholinosulfonyl-4-quinolyl]amino]benzoic acid] as the compound, how does the ΔTm at 100 µM read?
Its ΔTm at 100 µM is 1 to 5 °C.

For `O=C(O)c1ccc(-c2ccc3ncc(S(=O)(=O)N4CCOCC4)c(Nc4ccccc4C(=O)O)c3c2)cc1` [Compound 173A, 2-[[6-(4-carboxyphenyl)-3-morpholinosulfonyl-4-quinolyl]amino]benzoic acid], which ΔTm at 100 µM is on record?
Its ΔTm at 100 µM is 1 to 5 °C.

`O=C(O)c1ccc(Nc2c(S(=O)(=O)N3CCOCC3)cnc3ccc(Cl)cc23)c(C(=O)O)c1` [Compound 398A, 4-[(6-chloro-3-morpholinosulfonyl-4-quinolyl)amino]benzene-1,3-dicarboxylic acid] was tested. Which ΔTm at 100 µM did it give?
Its ΔTm at 100 µM is less than 1 °C.

Which ΔTm at 100 µM does the source give for `Cc1cccc(C(=O)O)c1Nc1c(S(=O)(=O)N2CCOCC2)cnc2ccc(Cl)cc12` [Compound 283A, 2-[(6-chloro-3-morpholinosulfonyl-4-quinolyl)amino]-3-methyl-benzoic acid] here?
Its ΔTm at 100 µM is greater than 5 °C.

With `O=C(O)c1cc(Cl)ccc1Sc1c(S(=O)(=O)N2CCOCC2)cnc2ccc(Cl)cc12` [Compound 330A, 5-chloro-2-[(6-chloro-3-morpholinosulfonyl-4-quinolyl)sulfanyl]benzoic acid] as the compound, how does the ΔTm at 100 µM read?
Its ΔTm at 100 µM is greater than 5 °C.

With `O=C(O)c1ccccc1Nc1c(C2=CCNCC2)cnc2ccc(Cl)cc12` [Compound 206A-INT, 2-[[6-chloro-3-(1,2,3,6-tetrahydropyridin-4-yl)-4-quinolyl]amino]benzoic acid] as the compound, how does the ΔTm at 100 µM read?
The ΔTm at 100 µM was greater than 5 °C.

With `O=C(O)c1ccccc1Nc1c(S(=O)(=O)N2CCOCC2)cnc2ccc(Nc3ccc4[nH]cnc4c3)cc12` [Compound 247A, 2-[[6-(1H-benzimidazol-5-ylamino)-3-morpholinosulfonyl-4-quinolyl]amino]benzoic acid] as the compound, how does the ΔTm at 100 µM read?
The ΔTm at 100 µM was 1 to 5 °C.

`Cc1ccc(C(=O)O)c(Nc2c(S(=O)(=O)N3CCOCC3)cnc3ccc(Cl)cc23)c1` [Compound 272A, 2-[(6-chloro-3-morpholinosulfonyl-4-quinolyl)amino]-4-methyl-benzoic acid] was tested. Which ΔTm at 100 µM did it give?
Its ΔTm at 100 µM is greater than 5 °C.

Which ΔTm at 100 µM does the source give for `O=C(O)c1ccccc1Nc1c(S(=O)(=O)N2CCOCC2)cnc2ccccc12` [Compound 250A, 2-[(3-morpholinosulfonyl-4-quinolyl)amino]benzoic acid] here?
The ΔTm at 100 µM was greater than 5 °C.

For `O=C(O)c1c(Nc2c(S(=O)(=O)N3CCOCC3)cnc3ccc(Cl)cc23)ccc(Cl)c1O` [Compound 324A, 3-chloro-6-[(6-chloro-3-morpholinosulfonyl-4-quinolyl)amino]-2-hydroxy-benzoic acid], which ΔTm at 100 µM is on record?
Its ΔTm at 100 µM is greater than 5 °C.

Same assay, conditions: read-out: ΔTm at 100 μM

With `NC(=O)c1ccc(Nc2c(S(=O)(=O)N3CCOCC3)cnc3ccc(Cl)cc23)c(C(=O)O)c1` [Compound 373A, 5-carbamoyl-2-[(6-chloro-3-morpholinosulfonyl-4-quinolyl)amino]benzoic acid] as the compound, how does the ΔTm at 100 µM read?
The ΔTm at 100 µM was 1 to 5 °C.
